From patent US8728808B2, “Multiple inducible gene regulation system” (Intrexon Corporation, priority 2000, dated 2014)

How the values were obtained:
[1] = target: T1, GAL4DmEcR-CDEF/VP16MmRXR-LmUSP-EFchimera (Drosophila melanogaster, UniProt P34021); test: Dual switch reporter assay in NIH3T3 cells, SEAP under 6XGAL4RE; type: cell-based; conditions: mouse NIH3T3 cells, 0.02, 0.1, 0.5, or 2.5 μM ligand, 48 hours, FIG. 1
T1 construct: C, D, E, and F domains from fruit fly Drosophila melanogaster EcR (“DmEcR-CDEF”); expressed in transfected cells; host or cells: mouse NIH3T3 cells
Text: (§1) A polynucleotide encoding the C, D, E, and F domains from fruit fly Drosophila melanogaster EcR (“DmEcR-CDEF”; SEQ ID NO: 1) was fused to a polynucleotide encoding a GAL4 DNA binding domain (“Gal4DNABD” or “Gal4 DBD”; SEQ ID NO: 2) and placed under the control of a cytomegalovirus (CMV) promoter/enhancer (SEQ ID NO: 3). A polynucleotide encoding the C, D, E, and F domains from spruce budworm Choristoneura fumiferana EcR (“CfEcR-CDEF”; SEQ ID NO: 4) was fused to a polynucleotide encoding a LexA DNA binding domain (“LexADNABD” or “LexADBD”; SEQ ID NO: 5) and placed under the control of a cytomegalovirus (CMV) promoter/enhancer (SEQ ID NO: 3). […]
(§2) DNAs corresponding to the dual switch constructs outlined in Examples 1.1 and 1.2 were transfected into mouse NIH3T3 cells (ATCC; Example 1.1) or CHO cells (ATCC; Example 1.2) as follows. […] One μg of reporter construct and 0.25 μg of each receptor construct of the receptor pair to be analyzed were added to the transfection mix. […]
(§3) Cells were harvested 48 hours after adding ligands and reporter activities were quantified using the Dual-luciferase™ reporter assay system from Promega Corporation. […] Luciferase activity was measured using Dual-luciferase™ reporter assay system from Promega Corporation following the manufacturer's instructions. […]

[2] = test system: GAL4NcEcR-CDE/VP16MmRXRα-EF; test: Transactivation of pFRLuc reporter in CHO cells through NcEcR; type: cell-based, Nephotetix cincticeps; conditions: hamster CHO cells, 0.1, 1, 5, or 10 μM ligand, 48 hours, FIG. 2
Method: (§4) This construct was prepared as follows. A polynucleotide encoding the D, E, and F domains from spruce budworm Choristoneura fumiferana EcR (“CfEcR-DEF”; SEQ ID NO: 14) was fused to a polynucleotide encoding a GAL4DNA binding domain (“GAL4 DBD”; SEQ ID NO: 2) and placed under the control of a cytomegalovirus (CMV) promoter/enhancer (SEQ ID NO: 3). A polynucleotide encoding the C, D and E domains from green leafhopper Nephotelix cincticeps ecdysone receptor (“NcEcR-CDE”; SEQ ID NO: 15) was fused to a polynucleotide encoding a GAL4DNA binding domain (“GAL4 DBD”; SEQ ID NO: 2) and placed under the control of a cytomegalovirus (CMV) promoter/enhancer (SEQ ID NO: 3). […]
as §2, §3

[3] = test system: LexACfEcR-CDEF/VP16MmRXR-LmUSP-EFchimera; test: Dual switch reporter assay in NIH3T3 cells, luciferase under 8opLexARE; type: cell-based, Choristoneura fumiferana; conditions: mouse NIH3T3 cells, 0.02, 0.1, 0.5, or 2.5 μM ligand, 48 hours, FIG. 1
Text: as §1, §2, §3

[4] = test system: GAL4CfEcR-DEF/VP16MmRXRα-EF; test: Transactivation of pFRLuc reporter in CHO cells through CfEcR; type: cell-based, Choristoneura fumiferana; conditions: hamster CHO cells, 0.1, 1, 5, or 10 μM ligand, 48 hours, FIG. 2
Method: as §4, §2, §3

T1 sequence (P34021 other isoform, or with tags, fused parts or gaps): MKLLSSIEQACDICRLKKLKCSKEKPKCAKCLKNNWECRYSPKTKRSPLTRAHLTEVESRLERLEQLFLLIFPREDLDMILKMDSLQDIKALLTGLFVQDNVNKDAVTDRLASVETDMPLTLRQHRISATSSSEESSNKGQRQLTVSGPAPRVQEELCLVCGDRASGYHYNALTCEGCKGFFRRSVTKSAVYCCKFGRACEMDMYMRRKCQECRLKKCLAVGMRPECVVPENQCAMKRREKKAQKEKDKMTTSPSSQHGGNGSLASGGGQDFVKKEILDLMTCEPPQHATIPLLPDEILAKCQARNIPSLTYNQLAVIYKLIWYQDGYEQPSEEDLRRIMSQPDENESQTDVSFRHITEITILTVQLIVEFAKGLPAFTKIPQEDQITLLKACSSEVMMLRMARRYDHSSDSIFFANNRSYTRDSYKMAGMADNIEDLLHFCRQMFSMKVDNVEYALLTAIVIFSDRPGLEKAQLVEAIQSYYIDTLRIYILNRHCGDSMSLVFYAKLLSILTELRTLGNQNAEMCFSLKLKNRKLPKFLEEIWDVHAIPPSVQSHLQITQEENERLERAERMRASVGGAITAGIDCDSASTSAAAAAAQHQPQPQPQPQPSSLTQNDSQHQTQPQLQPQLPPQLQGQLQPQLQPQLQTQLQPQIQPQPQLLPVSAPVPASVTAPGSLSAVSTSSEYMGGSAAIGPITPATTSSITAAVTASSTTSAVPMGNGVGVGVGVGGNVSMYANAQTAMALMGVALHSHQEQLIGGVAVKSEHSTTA

CC(C)CC[C@@H](O)[C@](C)(O)[C@H]1CC[C@@]2(O)C3=CC(=O)[C@@H]4C[C@@H](O)[C@@H](O)C[C@]4(C)[C@H]3CC[C@]12C [PonA, ponasterone A]
induction of SEAP reporter activity (GAL4DmEcR-CDEF switch) [1]: SEAP reporter activity was induced
induction of luciferase reporter activity regulated by NcEcR-CDE [2]: luciferase reporter activity regulated by NcEcR-DE was induced
induction of luciferase reporter activity (LexACfEcR-CDEF switch) [3]: only SEAP reporter activity was induced
induction of luciferase reporter activity regulated by CfEcR-DEF [4]: did not induce reporter gene expression

CCc1c(OC)cccc1C(=O)NN(C(=O)c1cc(C)cc(C)c1)C(C)(C)C [GS™-E, N-(2-ethyl-3-methoxybenzoyl)-N′-(3,5-dimethylbenzoyl)-N′-tert-butylhydrazine]
induction of SEAP reporter activity (GAL4DmEcR-CDEF switch) [1]: only luciferase activity was induced
induction of luciferase reporter activity regulated by NcEcR-CDE [2]: does not induce reporter gene expression
induction of luciferase reporter activity (LexACfEcR-CDEF switch) [3]: luciferase activity was induced
induction of luciferase reporter activity regulated by CfEcR-DEF [4]: luciferase activity regulated by CfEcR-DEF was induced
